Laboratory results: PubChem BioAssay (NCI)
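All cell lines were grown in 96-well plates and treated with compound for 48 hours. The concentration for full growth arrest is given as TGI.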

Columns and labels:
Assay in all cases: growth of human tumour cells (NCI), 48 h
[1] = tested on: OVCAR-8 ovarian
[2] = tested on: UACC-257 melanoma
[3] = tested on: SK-MEL-5 melanoma
[4] = tested on: NCI-H23 lung
[5] = tested on: OVCAR-3 ovarian
[6] = tested on: KM12 colon
[7] = tested on: HT29 colon
[8] = tested on: SF-268 CNS
[9] = tested on: OVCAR-4 ovarian
[10] = tested on: CAKI-1 renal

SMILES | TGI [1] | TGI [2] | TGI [3] | TGI [4] | TGI [5] | TGI [6] | TGI [7] | TGI [8] | TGI [9] | TGI [10]
O=C(O)C12CC3CC(CC(F)(C3)C1)C2 | > 100 µM | > 100 µM | > 100 µM | > 100 µM | > 100 µM | > 100 µM | > 100 µM |  |  | 
c1cc(CN2CCNCCNCCNCC2)cc(CN2CCNCCNCCNCC2)c1 | > 100 µM | > 100 µM | > 100 µM | > 100 µM | > 100 µM | > 100 µM | > 100 µM | > 100 µM | > 100 µM | 
O=C1/C(=C/c2cccs2)NC(=S)N1CN1CCCCC1 | > 100 µM |  | > 100 µM | > 100 µM | > 100 µM | > 100 µM | > 100 µM | > 100 µM | > 100 µM | 
c1ccc(COC2C3COC(O3)C(OCc3ccccc3)C2OCc2ccccc2)cc1 (stereo unspecified) | > 100 µM | > 100 µM | > 100 µM | > 100 µM | > 100 µM | > 100 µM |  | > 100 µM | > 100 µM | > 100 µM
CSc1ccc2c(cc1=O)C(NC(=O)c1ccc(C#N)cc1)CCc1cc(O)c(O)c(O)c1-2 (stereo unspecified) | 99.7 µM | 37 µM | 71.5 µM | 71.3 µM | > 100 µM | > 100 µM | 75.3 µM | > 100 µM | 27.2 µM | 
CCCCCCCCCCCCC(O)C(=O)O (stereo unspecified) | > 100 µM | > 100 µM | > 100 µM | > 100 µM | > 100 µM | > 100 µM | > 100 µM |  | > 100 µM | > 100 µM
CCC(C)N1CN(c2ccccc2)C2(CCN(CCCSc3ccc(F)cc3)CC2)C1=O (stereo unspecified) | 21.5 µM | 7.37 µM | 4.62 µM | 16 µM | 7.25 µM | 15.2 µM | 8.3 µM | 23.7 µM |  | 11 µM
COC(=O)c1ccc(C=C(C#N)C#N)cc1 | 56.5 µM |  | 33.1 µM | 38.4 µM | 67.5 µM | 92.2 µM | > 100 µM | 59.1 µM | 47 µM | 74.7 µM
C[C@@]1(OC(=O)c2cc([N+](=O)[O-])cc([N+](=O)[O-])c2)C[C@@H]2CCCC[C@@H]21 | > 100 µM | > 100 µM | > 100 µM | > 100 µM |  | > 100 µM | > 100 µM | > 100 µM | > 100 µM | > 100 µM
CN1CCC/C1=C1/C(=O)N(c2ccccc2)N=C1c1ccc[nH]1 | > 100 µM | > 100 µM | > 100 µM | > 100 µM | > 100 µM | > 100 µM |  | > 100 µM | > 100 µM | > 100 µM
Nc1nc2c(ncn2CCCC(c2ccccc2)P(=O)(O)O)c(=O)[nH]1 (stereo unspecified) | > 100 µM | > 100 µM | > 100 µM | > 100 µM | > 100 µM | > 100 µM | > 100 µM | > 100 µM |  | > 100 µM
CSC(=N)N1N=C2/C(=C/c3ccccc3)CCC[C@H]2[C@H]1c1ccccc1 | 24.8 µM | 6.92 µM |  | 19.2 µM | 23.8 µM | 23.2 µM | 5.54 µM | 37.9 µM | 11.8 µM | 
C[C@H](NC(=O)CNC(=O)CCCCCC(=O)NCC(=O)N[C@@H](C)C(=O)OCc1ccccc1)C(=O)OCc1ccccc1 | > 100 µM | > 100 µM |  | > 100 µM | > 100 µM | > 100 µM | > 100 µM | > 100 µM | > 100 µM | > 100 µM
NC(=O)c1sc2nc3ccccc3n2c1N | > 100 µM | > 100 µM | > 100 µM | 41.4 µM | > 100 µM |  | > 100 µM | > 100 µM | > 100 µM | > 100 µM
Nc1[nH]c(=O)[nH]c(=O)c1Cc1cccc(Cl)c1 | > 100 µM | > 100 µM |  | > 100 µM | > 100 µM | > 100 µM | > 100 µM | > 100 µM | > 100 µM | > 100 µM
COC(=O)CCC(NC(=S)N/N=C(\C)c1cnccn1)C(=O)OC (stereo unspecified) | > 100 µM | > 100 µM | > 100 µM | > 100 µM | > 100 µM | > 100 µM | > 100 µM | > 100 µM | > 100 µM | 
C=C(CCC=C(C)C)C1CC=C(C)CC1 (stereo unspecified) | > 100 µM | > 100 µM | 31 µM | 34.9 µM | 81.2 µM | 52.6 µM |  | > 100 µM |  | 42.2 µM
COc1ccc(NC/C=C/C(=C/COC(C)=O)OC(C)=O)cc1 | 16.1 µM | 5.04 µM | 28.8 µM |  | 4.28 µM | 1.99 µM |  | 6.52 µM | 3.26 µM | 4.18 µM
